Reference: ChEMBL document CHEMBL3045032, “Triptolide suppresses lipopolysaccharide-induced activity of toll-like receptor 4 in mouse macrophage cell line RAW 264.7” (Med Chem Res, 2012)
Activity calls are given as the source filed them.

Experiments:
Type in all cases: functional, cell-based
RAW264.7 [1] = assay: Effect on HSP70 mRNA level in Mus musculus (mouse) RAW264.7 cells pretreated for 1 hr before treatment with 100 ng/ml LPS for 6 hr by RT-PCR analysis
RAW264.7 [2] = assay: Inhibition of LPS-induced IL-6 level in Mus musculus (mouse) RAW264.7 cells pretreated for 1 hr before treatment with 100 ng/ml LPS for 6 hr by ELISA
RAW264.7 [3] = assay: Inhibition of LPS-induced TNF-alpha level in Mus musculus (mouse) RAW264.7 cells pretreated for 1 hr before treatment with 100 ng/ml LPS for 6 hr by ELISA
RAW264.7 [4] = assay: Effect on HSP70 protein level in Mus musculus (mouse) RAW264.7 cells pretreated for 1 hr before treatment with 100 ng/ml LPS for 6 hr by RT-PCR analysis
RAW264.7 [5] = assay: Inhibition of LPS-induced TLR4 expression in Mus musculus (mouse) RAW264.7 cells pretreated for 1 hr before treatment with 100 ng/ml LPS for 6 hr by Western blot analysis
RAW264.7 [6] = assay: Inhibition of LPS-induced TLR4 expression in Mus musculus (mouse) RAW264.7 cells pretreated for 1 hr before treatment with 100 ng/ml LPS for 6 hr by RT-PCR analysis

CC(C)[C@]12O[C@H]1[C@@H]1O[C@]13[C@]1(O[C@H]1C[C@H]1C4=C(CC[C@@]13C)C(=O)OC4)[C@@H]2O
active: inhibition (RAW264.7 [2]) Dose-dependent effect | inhibition (RAW264.7 [3]) Dose-dependent effect | inhibition (RAW264.7 [5]) Dose-dependent effect | inhibition (RAW264.7 [6]) Dose-dependent effect
inactive: Activity (RAW264.7 [1]) | Activity (RAW264.7 [4])
